Measured values reported in patent US20260285853A1, “COMPOUNDS AND METHODS FOR MODULATING SPLICING” (REMIX THERAPEUTICS INC., priority 2023, published 2026).
Read-outs that look alike come from different tables or passages of the source.

What was measured:
Type in all cases: cell-based
HTT mRNA [1] = assay: Gene panel canonical junction qPCR assay, decrease in CJ mRNA, Table 3
How it was run: (§1)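 IC50 is the concentration giving 50% response in decrease of the canonical junction transcript, fitted with a 4-parameter logistic equation. Transcripts were quantified by RT-qPCR in A673 or K562 cells after 24 h exposure to compounds dosed up to 10 uM in 3-fold steps.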

MYB mRNA [2] = assay: as above
How it was run: as §1

MYB mRNA [3] = assay: Splicing RT-qPCR assay (THP), Table 2A
HTT mRNA [4] = assay: Splicing RT-qPCR assay (THP), Table 2A
[5] = system: SH-SY5Y (human neuroblastoma) cells; assay: Cell viability, Cell Titer Glo 2.0 assay; settings: read-out: Viability SHSY5Y.3 GI50
How it was run: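 Steps: serial DMSO dilution of compound, 1:100 dilution into medium, addition to cells (0.1% DMSO final). Incubate 72 h at 37 °C, 5% CO2. Assay with CellTiter-Glo 2.0 reagent.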

[6] = decrease in CJ mRNA levels, canonical junction qPCR, gene panel
[7] = Table 2A, THP, MYB alternative junction (AJ) mRNA, read-out: MYB AJ (AC50, increase in alternative junction mRNA)
[8] = Table 2A, THP, MYB canonical junction (CJ) mRNA, read-out: MYB CJ (IC50, decrease in canonical junction mRNA)
[9] = Table 2A, THP, HTT alternative junction (AJ) mRNA, read-out: HTT AJ (AC50, increase in alternative junction mRNA)
[10] = Table 2A, THP, HTT canonical junction (CJ) mRNA, read-out: HTT CJ (IC50, decrease in canonical junction mRNA)
[11] = decrease in canonical junction (CJ) mRNA, gene panel qPCR, Table 3
[12] = Table 2A (THP), AJ mRNA increase, read-out: MYB AJ (increase in alternative junction mRNA, AC50)
[13] = Table 2A (THP), CJ mRNA decrease, read-out: MYB CJ (decrease in canonical junction mRNA, IC50)
[14] = Table 2A (THP), AJ mRNA increase, read-out: HTT AJ (increase in alternative junction mRNA, AC50)
[15] = Table 2A (THP), CJ mRNA decrease, read-out: HTT CJ (decrease in canonical junction mRNA, IC50)

| IC50 (HTT mRNA [1]; [6]) [µM] | IC50 (MYB mRNA [2]; [6]) [µM] | IC50 (MYB mRNA [3]; [8]) [µM] | IC50 (HTT mRNA [4]; [10]) [µM] | GI50 [5] [µM] | IC50 (HTT mRNA [1]; [11]) [µM] | IC50 (MYB mRNA [2]; [11]) [µM] | IC50 (MYB mRNA [3]; [13]) [µM] | IC50 (HTT mRNA [4]; [15]) [µM] | Structure (SMILES) | AC50 (MYB mRNA [3]; [7]) [µM] | AC50 (HTT mRNA [4]; [9]) [µM] | AC50 (MYB mRNA [3]; [12]) [µM] | AC50 (HTT mRNA [4]; [14]) [µM] |
| --- | --- | --- | --- | --- | --- | --- | --- | --- | --- | --- | --- | --- | --- |
| > 10 | > 10 | > 10 | > 10 | 1 to 10 |  |  |  |  | COc1cc2nn(C)cc2cc1NC(=O)c1cc(C)c(N2CCC(NC3CC3)CC2)c2cn(C)nc12 [Compound 696] | > 10 | > 10 |  |  |
|  |  |  |  | 1 to 10 | 1 to 10 | 0.1 to 1 | 0.1 to 1 | 1 to 10 | Cc1cn2cc(NC(=O)c3c(F)cc(N4CCC(N(C)C)CC4)c4cn(C)nc34)nc2c(C)n1 [Compound 356, 4-[4-(dimethylamino)-1-piperidyl]-N-(6,8-dimethylimidazo[1,2-a]pyrazin-2-yl)-6-fluoro-2-methyl-indazole-7-carboxamide] |  |  | < 0.1 | 1 to 10 |
| 1 to 10 | 0.1 to 1 | 0.1 to 1 | 1 to 10 | 1 to 10 |  |  |  |  | COc1nc2c(N3CCC(NC4CC4)CC3)ccc(C(=O)Nc3cc(F)c4nc(C)cn4c3)c2o1 [Compound 666, 4-[4-(cyclopropylamino)-1-piperidyl]-N-(8-fluoro-2-methyl-imidazo[1,2-a]-pyridin-6-yl)-2-methoxy-1,3-benzoxazole-7-carboxamide] | 0.1 to 1 | 1 to 10 |  |  |
|  |  |  |  | 0.1 to 1 | 0.1 to 1 | 0.1 to 1 | 0.1 to 1 | 0.1 to 1 | CCNC1CCN(c2cc(F)c(C(=O)Nc3cn4cc(C#N)nc(C)c4n3)c3nn(C)cc23)CC1 [Compound 359, N-(6-cyano-8-methyl-imidazo-[1,2-a]pyrazin-2-yl)-4-[4-(ethylamino)-1-piperidyl]-6-fluoro-2-methyl-indazole-7-carboxamide] |  |  | 0.1 to 1 | 0.1 to 1 |
| > 10 | < 0.1 | < 0.1 | > 10 | 0.1 to 1 |  |  |  |  | COc1nc2c(C(=O)Nc3cc(F)c4nn(C)cc4c3)ccc(N3CCN[C@@H](C(C)C)C3)c2s1 [Compound 732] | < 0.1 | > 10 |  |  |
| > 10 | > 10 | > 10 | > 10 | > 10 |  |  |  |  | Cc1cn2cc(NC(=O)c3ccc(N4CCC(NC5CC5)CC4)c4cn(C)nc34)nc2c(CNC(=N)N)n1 [Compound 754, 4-(4-(cyclopropylamino)piperidin-1-yl)-N-(8-(guanidinomethyl)-6-methylimidazo[1,2-a]pyrazin-2-yl)-2-methyl-2H-indazole-7-carboxamide bis(2,2,2-trifluoroacetate)] | > 10 | > 10 |  |  |
| < 0.1 | < 0.1 | < 0.1 | < 0.1 | < 0.1 |  |  |  |  | COc1nc2c(C(=O)Nc3cc(F)c4nn(C)cc4c3)ccc(N3C[C@H](C)N[C@@H](C)C3)c2s1 [Compound 675, 7-[(3S,5S)-3,5-dimethylpiperazin-1-yl]-N-(7-fluoro-2-methyl-indazol-5-yl)-2-methoxy-1,3-benzothiazole-4-carboxamide] | < 0.1 | < 0.1 |  |  |
| > 10 | 1 to 10 | 1 to 10 | > 10 | > 10 |  |  |  |  | Cc1cn2cc(NC(=O)c3ccc(N4CCC(NC5CC5)CC4)c4c3OCO4)cc(F)c2n1 [Compound 648, 7-[4-(cyclopropylamino)-1-piperidyl]-N-(8-fluoro-2-methyl-imidazo[1,2-a]pyridin-6-yl)-1,3-benzodioxole-4-carboxamide] | 1 to 10 | > 10 |  |  |
|  |  |  |  | 1 to 10 | 0.1 to 1 | 0.1 to 1 | 0.1 to 1 | 0.1 to 1 | COc1cc2nn(C)cc2cc1NC(=O)c1ccc(OC2CCNCC2)c2cn(C)nc12 [Compound 566] |  |  | 0.1 to 1 | 1 to 10 |
| 1 to 10 | 0.1 to 1 | 0.1 to 1 | 1 to 10 | 0.1 to 1 |  |  |  |  | COc1nc2c(C(=O)Nc3cc4cn(C)nc4cc3OC)ccc(N3CCC(NC4CC4)CC3)c2s1 [Compound 668, 7-(4-(cyclopropylamino)-piperidin-1-yl)-2-methoxy-N-(6-methoxy-2-methyl-2H-indazol-5-yl)benzo[d]-thiazole-4-carboxamide 2,2,2-trifluoroacetate] | 0.1 to 1 | 1 to 10 |  |  |
|  |  |  |  | 0.1 to 1 | > 10 | 1 to 10 | 1 to 10 | > 10 | Cc1cc2cc(NC(=O)c3ccc(N4CCC(NC5CC5)CC4)c4cn(C)nc34)oc2c(C)n1 [Compound 451, 4-(4-(cyclopropylamino)piperidin-1-yl)-N-(5,7-dimethyl-furo-[2,3-c]pyridin-2-yl)-2-methyl-2H-indazole-7-carboxamide 2,2,2-trifluoroacetate] |  |  | 1 to 10 | > 10 |
|  |  |  |  | > 10 | 1 to 10 | 0.1 to 1 | 0.1 to 1 | 1 to 10 | COc1cc2nn(C)cc2cc1NC(=O)c1ccc(N2CC3(CNC3)C2)c2cn(C)nc12 [Compound 506] |  |  | 0.1 to 1 | 1 to 10 |
|  |  |  |  | > 10 | > 10 | 1 to 10 | 1 to 10 | > 10 | COc1cc2nn(C)cc2cc1NC(=O)c1ccc(N2CCC3NCC3C2)c2cn(C)nc12 (centres unmarked) [Compound 542] |  |  | 0.1 to 1 | > 10 |
|  |  |  |  | 1 to 10 | > 10 | 0.1 to 1 | 0.1 to 1 | > 10 | CCNC1CCN(c2cc(F)c(C(=O)Nc3cc4c(C)nc(C)cn4c3)c3nn(C)cc23)CC1 [Compound 344, N-(1,3-dimethylpyrrolo[1,2-a]-pyrazin-7-yl)-4-[4-(ethylamino)-1-piperidyl]-6-fluoro-2-methyl-indazole-7-carboxamide] |  |  | 0.1 to 1 | > 10 |
|  |  |  |  | 1 to 10 | > 10 | > 10 | > 10 | > 10 | COc1cc2nn(C)cc2cc1NC(=O)c1ccc(N2CC3(CNCCO3)C2)c2cn(C)nc12 [Compound 508] |  |  | 1 to 10 | > 10 |
|  |  |  |  | 0.1 to 1 | 1 to 10 | < 0.1 | < 0.1 | 1 to 10 | CCNC1CCN(c2ccc(C(=O)Nc3cc(Oc4ccc(C#N)cc4)c4nc(C)cn4c3)c3nn(C)cc23)CC1 [Compound 352, N-[8-(4-cyanophenoxy)-2-methyl-imidazo[1,2-a]pyridin-6-yl]-4-[4-(ethylamino)-1-piperidyl]-2-methylindazole-7-carboxamide] |  |  | < 0.1 | > 10 |
|  |  |  |  | 1 to 10 | > 10 | > 10 | > 10 | > 10 | Cc1cn2cc(NC(=O)c3ccc(N4CCC(NC5CC5)CC4)c4cn(C)nc34)nc2c(-c2ccns2)n1 [Compound 486, 4-(4-(cyclopropylamino)-piperidin-1-yl)-N-(8-(isothiazol-5-yl)-6-methyl-imidazo[1,2-a]-pyrazin-2-yl)-2-methyl-2H-indazole-7-carboxamide] |  |  | > 10 | > 10 |
|  |  |  |  | 1 to 10 | > 10 | 1 to 10 | 1 to 10 | > 10 | COc1ncccc1NC(=O)c1c(F)cc(N2CCC(NC3CC3)CC2)c2cn(C)nc12 [Compound 412, 4-(4-(cyclopropylamino)piperidin-1-yl)-6-fluoro-N-(2-methoxypyridin-3-yl)-2-methyl-2H-indazole-7-carboxamide] |  |  | 1 to 10 | > 10 |
|  |  |  |  | 1 to 10 | > 10 | 1 to 10 | 1 to 10 | > 10 | COc1c(NC(=O)c2c(F)cc(N3CCC(NC4CC4)CC3)c3cn(C)nc23)ccn2nc(C)cc12 [Compound 447, 4-(4-(cyclopropylamino)piperidin-1-yl)-6-fluoro-N-(4-methoxy-2-methylpyrazolo-[1,5-a]pyridin-5-yl)-2-methyl-2H-indazole-7-carboxamide 2,2,2-trifluoroacetate] |  |  | > 10 | > 10 |
| > 10 | > 10 | > 10 | > 10 | 1 to 10 |  |  |  |  | C[C@H]1CN(c2ccc(C(=O)Nc3cc(F)c4nn(C)cc4c3)c3sc(OCc4ccnn4C)nc23)C[C@H](C)N1 [Compound 796, 4-[(3S,5S)-3,5-dimethylpiperazin-1-yl]-N-(7-fluoro-2-methyl-indazol-5-yl)-2-[(2-methylpyrazol-3-yl)methoxy]-1,3-benzothiazole-7-carboxamide] | > 10 | > 10 |  |  |
